System: male Std: Wistar rats
Assay: Pain test by plantar thermal stimuli (plantar test)
Type: in vivo
Settings: Rattus norvegicus, 4 h, 50 μl of 0.03% (W/V) solution i.pl. into right hind-paw; 4 hours after administration; cut-off 25 seconds; read-out: % MPE (percent maximum possible effect, withdrawal latency)
Method: Experiment 1: Pain Test by Plantar Thermal Stimuli (Plantar Test)
In the present experiment, the analgesic effect of the compounds of the invention was evaluated by the measurements of withdrawal latency to noxious thermal stimuli, according to the methods of Hargreaves, et al., [Pain, 32, 77-88 (1988)] and Field, et al., [J. Pharmacol. Exp. Ther., 282, 1242-1246 (1997)].
In detail, the experiment was carried out using male Std: Wistar rats (4 rats/group; body weight, 170-220 g) and a plantar test device (Model 7370, Ugo Basile) with infrared beam as a heat source. The rat was put into an experimental cage that is an acrylic box whose bottom is made of glass and was habituated therein. Then, the infrared beam was radiated to the plantar surface of right hind-paw thereof through the floor glass, and the withdrawal latency was measured every 5 minutes, 3 times. The intension of the infrared beam was adjusted so that the pre-drug administration latency was about 10 seconds. The cut-off time was set at 25 seconds in order to prevent a paw burn. The average of the latencies was calculated, and then it was defined as the value of the pre-drug administration latency of the test compound.
Next day, 50 μl of each solution of the test compounds [the compounds of the invention, the compounds of the comparative Examples and capsaicin (Sigma, U.S.A.)] or 50 μl of vehicle solvent (reference) was given to a right hind-paw of the rat by intraplantar injection (i. pl.) using a micro-syringe. The test compound was dissolved in a saline solution containing 10% Tween 80 (Sigma, U.S.A) and 10% ethanol to give a 0.03% (W/V) solution. The saline solution containing 10% Tween 80 and 10% ethanol was used as reference. Four hours after i.pl. administration of each the test compound or the reference to the rats, the experiment mentioned above was carried out, and then the post-drug administration latency was measured. The analgesic effects thereof were calculated with the following formula, which was known as a percent maximum possible effect (% MPE). % MPE=[(the value of post-drug latency−the value of pre-drug latency)/(25*−the value of pre-drug latency)]×100 *: cut-off time

SMILES	change in vivo at 300 µg/mL [%]
CCCCO[C@H]1CC[C@H](NC(=O)Cc2ccc(O)c(OC)c2)CC1 [Example 35, N-(trans-4-butoxycyclohexyl)-2-(4-hydroxy-3-methoxyphenyl)acetamide]	42.8
C/C=C\CC[C@H]1CC[C@H](NC(=O)Cc2ccc(O)c(OC)c2)CC1 [Example 73, 2-(4-hydroxy-3-methoxyphenyl)-N-{trans-4-[(Z)-3-pentenyl]cyclohexyl}acetamide]	74.1
COc1cc(CC(=O)N[C@H]2CC[C@@H](CC=C(C)C)CC2)ccc1O [Example 47, 2-(4-hydroxy-3-methoxyphenyl)-N-[cis-4-(3-methyl-2-butenyl)cyclohexyl]acetamide]	69
CC/C=C/[C@H]1CC[C@H](NC(=O)Cc2ccc(O)c(OC)c2)CC1 [Example 52, N-{trans-4-[(E)-1-butenyl]cyclohexyl}-2-(4-hydroxy-3-methoxyphenyl)acetamide]	91.5
COc1cc(CC(=O)N[C@H]2CC[C@H](C=C3CCCC3)CC2)ccc1O [Example 25]	98.3
CCCCC[C@H]1CC[C@H](NC(=O)Cc2ccc(O)c(OC)c2)CC1 [Example 30]	71.3
CCC/C=C\[C@H]1CC[C@H](NC(=O)Cc2ccc(O)c(OC)c2)CC1 [Example 17]	74.9
C=C(C)/C=C/[C@H]1CC[C@H](NC(=O)Cc2ccc(O)c(OC)c2)CC1 [Example 72, 2-(4-hydroxy-3-methoxyphenyl)-N-{trans-4-[(E)-3-methyl-1,3-butadienyl]cyclohexyl}acetamide]	75.4
CCCCCC1CCC(NC(=O)Cc2ccc(O)c(OC)c2)CC1 (stereo not shown) [Example 3, 2-(4-hydroxy-3-methoxyphenyl)-N-(4-pentyl-cyclohexyl)acetamide]	89.9
COc1cc(CC(=O)NC2CCC(=C(C)C)CC2)ccc1O (stereo not shown) [Example 82, 2-(4-hydroxy-3-methoxyphenyl)-N-(4-isopropylidenecyclohexyl)acetamide]	68.4
COc1cc(CC(=O)N[C@H]2CC[C@H](/C=C/CC(F)(F)F)CC2)ccc1O [Example 102]	56.6
CCCC1(CCC)CCC(NC(=O)Cc2ccc(O)c(OC)c2)CC1 [Example 9, N-(4,4-dipropylcyclohexyl)-2-(4-hydroxy-3-methoxyphenyl)acetamide]	64.7
C=CCC[C@H]1CC[C@H](NC(=O)Cc2ccc(O)c(OC)c2)CC1 [Example 74, N-[trans-4-(3-butenyl)cyclohexyl]-2-(4-hydroxy-3-methoxyphenyl)acetamide]	57.1
CCC(CC)=C1CCC(NC(=O)Cc2ccc(O)c(OC)c2)CC1 (stereo not shown) [Example 77]	78.6
CCC1(CC)CCC(NC(=O)Cc2ccc(O)c(OC)c2)CC1 [Example 106]	51.5
CCCCC1(CC)CCC(NC(=O)Cc2ccc(O)c(OC)c2)CC1 (stereo not shown) [Example 107]	85.2
CCC(CC)C1=CCC(NC(=O)Cc2ccc(O)c(OC)c2)CC1 (stereo not shown) [Example 88, 2-(4-hydroxy-3-methoxyphenyl)-N-[4-(3-pentyl)-3-cyclohexenyl]acetamide]	95.5
COc1cc(CC(=O)N[C@H]2CC[C@H](/C=C\C(C)C)CC2)ccc1O [Example 14, 2-(4-hydroxy-3-methoxyphenyl)-N-{trans-4-[(Z)-3-methyl-1-butenyl]cyclohexyl}acetamide]	100
CCCC(CCC)=C1CCC(NC(=O)Cc2ccc(O)c(OC)c2)CC1 (stereo not shown) [Example 78]	82.8
C/C=C\C[C@H]1CC[C@H](NC(=O)Cc2ccc(O)c(OC)c2)CC1 [Example 94, N-{trans-4-[(Z)-2-butenyl]cyclohexyl}-2-(4-hydroxy-3-methoxyphenyl)acetamide]	69.1
COc1cc(CC(=O)N[C@H]2CC[C@@H](/C=C/C3CC3)CC2)ccc1O [Example 64]	71.1
COc1cc(CC(=O)N[C@H]2CC[C@H](OC(=O)c3ccc(C)cc3)CC2)ccc1O [Example 40, 2-(4-hydroxy-3-methoxyphenyl)-N-[trans-4-(4-methylphenylcarbonyloxy)cyclohexyl]acetamide]	48.3
CCC/C=C/[C@H]1CC[C@@H](NC(=O)Cc2ccc(O)c(OC)c2)CC1 [Example 60, 2-(4-hydroxy-3-methoxyphenyl)-N-{cis-4-[(E)-1-pentenyl]cyclohexyl}acetamide]	91.4
COc1cc(CC(=O)N[C@H]2CC[C@H](C3CCCCC3)CC2)ccc1O [Example 83, N-(trans-4-cyclohexylcyclohexyl)-2-(4-hydroxy-3-methoxyphenyl)acetamide]	77.4
COc1cc(CC(=O)N[C@H]2CC[C@H](C3CCC3)CC2)ccc1O [Example 86]	68.6

SMILES	change in vivo at 300 µg/mL [%]
C/C=C\[C@H]1CC[C@@H](NC(=O)Cc2ccc(O)c(OC)c2)CC1 [Example 50]	48.2
COc1cc(CC(=O)N[C@H]2CC[C@H](/C=C\CC(F)(F)F)CC2)ccc1O [Example 23]	77.9
COc1cc(CC(=O)N[C@H]2CC[C@H](/C=C/C(C)=O)CC2)ccc1O [Example 21]	50.3
CCCC(CCC)C1=CCC(NC(=O)Cc2ccc(O)c(OC)c2)CC1 (stereo not shown) [Example 89, N-[4-(4-heptyl)-3-cyclohexenyl]-2-(4-hydroxy-3-methoxyphenyl)acetamide]	100
COc1cc(CC(=O)N[C@H]2CC[C@H](CCCCF)CC2)ccc1O [Example 99, N-[trans-4-(4-fluorobutyl)cyclohexyl]-2-(4-hydroxy-3-methoxyphenyl)acetamide]	55.8
CCOC(=O)/C=C/[C@H]1CC[C@H](NC(=O)Cc2ccc(O)c(OC)c2)CC1 [Example 20]	53.8
CCC/C=C/[C@H]1CC[C@H](NC(=O)Cc2ccc(O)c(OC)c2)CC1 [Example 54]	82.5
COc1cc(CC(=O)N[C@H]2CC[C@@H](C=C(C)C)CC2)ccc1O [Example 95, 2-(4-hydroxy-3-methoxyphenyl)-N-[cis-4-(2-methyl-1-propenyl)cyclohexyl]acetamide]	88.8
C/C=C(\CC)[C@H]1CC[C@@H](NC(=O)Cc2ccc(O)c(OC)c2)CC1 [Example 97, N-{cis-4-[(E)-1-ethyl-1-propenyl]-cyclohexyl}-2-(4-hydroxy-3-methoxyphenyl)acetamide]	63.8
COc1cc(CC(=O)N[C@H]2CC[C@@H](CCCC(C)C)CC2)ccc1O [Example 69]	79.9
COc1cc(CC(=O)N[C@H]2CC[C@H](CCC3CC3)CC2)ccc1O [Example 32]	85.5
COc1cc(CC(=O)N[C@H]2CC[C@@H](/C=C/CC(C)C)CC2)ccc1O [Example 65]	100
COc1cc(CC(=O)N[C@H]2CC[C@H](OCCCC(F)(F)F)CC2)ccc1O [Example 38]	57.6
COc1cc(CC(=O)N[C@H]2CC[C@@H](/C=C\CC(C)C)CC2)ccc1O [Example 51]	96.4
COc1cc(CC(=O)N[C@H]2CC[C@@H](CCCC3CC3)CC2)ccc1O [Example 71]	87.9
COc1cc(CC(=O)NC2CCC(C)CC2)ccc1O (stereo not shown) [Comparative Example 1, 2-(4-hydroxy-3-methoxyphenyl)-N-(4-methyl-cyclohexyl)acetamide, reference compound]	23.3
COc1cc(CC(=O)N[C@H]2CC[C@@H](CC(C)C)CC2)ccc1O [Example 96, 2-(4-hydroxy-3-methoxyphenyl)-N-[cis-4-(2-methylpropyl)cyclohexyl]acetamide]	80.4
COc1cc(CC(=O)NC2CCC(=C3CCC3)CC2)ccc1O (stereo not shown) [Example 79]	33.6
COc1cc(CC(=O)NC2CCC3(CCCCC3)CC2)ccc1O [Example 105, 2-(4-hydroxy-3-methoxyphenyl)-N-(spiro[5.5]undec-3-yl)acetamide]	63.4
C/C=C/[C@H]1CC[C@H](NC(=O)Cc2ccc(O)c(OC)c2)CC1 [Example 53]	47.1
COc1cc(CC(=O)N[C@H]2CC[C@H](C3CCCCCC3)CC2)ccc1O [Example 87]	80.1
C/C=C/CC[C@H]1CC[C@H](NC(=O)Cc2ccc(O)c(OC)c2)CC1 [Example 75, 2-(4-hydroxy-3-methoxyphenyl)-N-{trans-4-[(E)-3-pentenyl]cyclohexyl}acetamide]	74.4
CCCC[C@H]1CC[C@@H](NC(=O)Cc2ccc(O)c(OC)c2)CC1 [Example 7]	78.6
COc1cc(CC(=O)N[C@H]2CC[C@H](CC3CCCC3)CC2)ccc1O [Example 34]	97.8

— patent US7767854B2, “N-substituted phenylacetamide derivative and pharmaceutical composition containing the same” (Dainippon Sumitomo Pharma Co., Ltd., priority 2005, dated 2010)
